Measurements reported in patent publication US20160101067A1, “SUPRAMOLECULAR COMPLEXES OF POLYANIONIC POLYMERS AND SPERMIDINE IN TISSUE MAINTENANCE AND REPAIR” (TIXUPHARMA, priority 2013, published 2016).

Test system: human fibroblasts (ATCC-CRL-2703)
Assay: Fibroblast proliferation, MTT coloration
Assay type: cell-based
Experimental: These supramolecular complexes were tested to evaluate the stimulatory activity on human fibroblasts (ATCC-CRL-2703). […] Cells were exposed to each complex for 24 and 48 hours (medium was replaced every 24 h) at 37° C. and 5% CO2. At the end of incubation period, MTT coloration was performed in order to evaluate cell viability and the increasing proliferating rate compared to untreated control cells. For each determination 6 tests were carried out. After exposure, cells were washed with […] of PBS, then 200 μl of MTT-medium are added to each culture well and incubated for 4 hours at 37° C. and 5% CO2. MTT medium is then removed and 200 μl of MTT dissolving solution (10% Triton X-100 and 0.1 N HCl in dry isopropanol) were added. After shaking on a rotating plate for 20-30′ to dissolve crystals and homogenize the solution, absorbance was read at 570 nm; background reading at 690 nm.

NCCCCNCCCN [Spermidine (Spd) 3HCl, N-(3-aminopropyl)-1,4-butanediamine]
% Proliferative increase at 24 h (Spd 3HCl 10 nM): 31.86%
% Proliferative increase at 48 h (Spd 3HCl 10 nM): 35.96%
% Proliferative increase at 24 h (Spd 3HCl 100 nM): 26.27%
% Proliferative increase at 48 h (Spd 3HCl 100 nM): 29.39%
% Proliferative increase at 24 h (Spd 3HCl 1 μM): 7.55%
% Proliferative increase at 48 h (Spd 3HCl 1 μM): 13.01%
% Proliferative increase at 24 h (Spd 3HCl 10 μM): 2.3%
% Proliferative increase at 48 h (Spd 3HCl 10 μM): 8.48%
% Proliferative increase at 24 h (Spd 3HCl 100 μM): 1.31%
% Proliferative increase at 48 h (Spd 3HCl 100 μM): 4.09%
% Proliferative increase at 24 h (Spd 3HCl 1 mM): −0.16%
% Proliferative increase at 48 h (Spd 3HCl 1 mM): −3.22%
% Proliferative increase at 24 h (Spd 3HCl 10 mM): −9.85%
% Proliferative increase at 48 h (Spd 3HCl 10 mM): −9.5%
effect on fibroblast proliferation at mmolar concentration (mmolar concentration): suppressive effect
pattern of the proliferative effect over concentration (serial dilution): bimodal pattern
effect on fibroblast proliferation at μmolar or nmolar levels (μmolar or nmolar levels): positive effect
